Source: ChEMBL document CHEMBL1201862, “PubChem BioAssay data set” (2004)
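Step 1: Grow cells in 96-well plates. Step 2: Expose to compound for 48 hours at 5 concentrations. Step 3: Interpolate endpoints linearly; if unreached, use highest concentration. GI50 is the concentration that inhibits growth by half.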 Activity calls are given as the source filed them. Rule as the data show it: active = GI50 up to about 1.1 µM and inactive = higher.

Tests used:
Experiment in all cases: inhibition of tumour cell growth, NCI panel, 48 h
K562 = test system: K562
MDA-MB-435 = test system: MDA-MB-435
BT-549 = test system: BT-549
HT-29 = test system: HT-29
HCT-15 = test system: HCT-15
U-251 = test system: U-251
HOP-62 = test system: HOP-62
786-0 = test system: 786-0
EKVX = test system: EKVX
TK-10 = test system: TK-10
NCI-H522 = test system: NCI-H522
CCRF-CEM = test system: CCRF-CEM
UACC-62 = test system: UACC-62
COLO 205 = test system: COLO 205
HL-60 = test system: HL-60
MDA-MB-231 = test system: MDA-MB-231
SF-295 = test system: SF-295
SF-539 = test system: SF-539
NCI-H460 = test system: NCI-H460

Row | SMILES | GI50 (K562) | GI50 (MDA-MB-435) | GI50 (BT-549) | GI50 (HT-29) | GI50 (HCT-15) | GI50 (U-251) | GI50 (HOP-62) | GI50 (786-0) | GI50 (EKVX) | GI50 (TK-10) | GI50 (NCI-H522) | GI50 (CCRF-CEM) | GI50 (UACC-62) | GI50 (COLO 205) | GI50 (HL-60) | GI50 (MDA-MB-231) | GI50 (SF-295) | GI50 (SF-539) | GI50 (NCI-H460)
1 | CC(C)(C)c1cc(Br)c(O)c(CN(Cc2cc(C(C)(C)C)cc(Br)c2O)C2CCCCC2)c1 | 13.3 µM (inactive) | 14.3 µM (inactive) | 15.8 µM (inactive) | 6.89 µM (inactive) | 12.8 µM | 13.9 µM (inactive) | 15.2 µM (inactive) | 14.6 µM (inactive) | 14.8 µM (inactive) | 15.8 µM (inactive) | 12.6 µM (inactive) | 13.3 µM (inactive) | 12.7 µM (inactive) | 11.2 µM (inactive) | 17.6 µM (inactive) | 15 µM (inactive) | 12.7 µM (inactive) | – | –
2 | CCOC(=O)C(C)c1nc2cc3cccnc3c(Cl)c2[nH]c1=O (centres undefined) | > 100 µM (inactive) | > 100 µM (inactive) | > 100 µM (inactive) | > 100 µM (inactive) | > 100 µM | > 100 µM (inactive) | > 100 µM (inactive) | > 100 µM (inactive) | > 100 µM (inactive) | > 100 µM (inactive) | – | > 100 µM (inactive) | > 100 µM (inactive) | > 100 µM (inactive) | > 100 µM (inactive) | 82 µM (inactive) | > 100 µM (inactive) | > 100 µM (inactive) | 32.4 µM (inactive)
3 | O=C(N/N=C1/C(=O)c2c3ccccc3cc3cccc1c23)c1cccc(Cl)c1 | > 100 µM (inactive) | > 100 µM (inactive) | > 100 µM (inactive) | > 100 µM (inactive) | > 100 µM | 94.8 µM (inactive) | 28.9 µM (inactive) | 56.6 µM (inactive) | – | – | – | 67.6 µM (inactive) | 69.7 µM (inactive) | > 100 µM (inactive) | > 100 µM (inactive) | > 100 µM (inactive) | – | 90.2 µM (inactive) | 79.4 µM (inactive)
4 | O=C1CN(c2ccccc2)C(=O)CN1NCNN1CC(=O)N(c2ccccc2)CC1=O | – | > 100 µM (inactive) | > 100 µM (inactive) | > 100 µM (inactive) | > 100 µM | > 100 µM (inactive) | > 100 µM (inactive) | > 100 µM (inactive) | > 100 µM (inactive) | > 100 µM (inactive) | > 100 µM (inactive) | > 100 µM (inactive) | > 100 µM (inactive) | > 100 µM (inactive) | > 100 µM (inactive) | – | > 100 µM (inactive) | > 100 µM (inactive) | > 100 µM (inactive)
5 | Cc1ccc(S(=NS(=O)(=O)c2ccc(C)cc2)c2ccc(C)cc2)cc1 | 36.1 µM (inactive) | 60.3 µM (inactive) | > 100 µM (inactive) | > 100 µM (inactive) | 57 µM | 57.5 µM (inactive) | > 100 µM (inactive) | > 100 µM (inactive) | 86.5 µM (inactive) | > 100 µM (inactive) | – | 57 µM (inactive) | – | 54.7 µM (inactive) | 34.7 µM (inactive) | – | 75.7 µM (inactive) | > 100 µM (inactive) | > 100 µM (inactive)
6 | COC(=O)C1=C(CCCCO[Si](C)(C)C(C)(C)C)NC(=O)N2[C@@H](CCOCc3ccccc3)CC[C@H]12 | 25.1 µM (inactive) | 24 µM (inactive) | 20.5 µM (inactive) | 12.3 µM (inactive) | 17.8 µM | 14.4 µM (inactive) | 24.2 µM (inactive) | 15.9 µM (inactive) | 15.8 µM (inactive) | 40.3 µM (inactive) | 11.1 µM (inactive) | 17.9 µM (inactive) | 24.3 µM (inactive) | 18 µM (inactive) | – | 18.2 µM (inactive) | 26 µM (inactive) | – | 25.9 µM (inactive)
7 | Cc1c(C)c(S(=O)(=O)N(CCCN)OCCCN)c(C)c2c1OC(C)(C)C2 | 35 µM (inactive) | 53.7 µM (inactive) | 30.5 µM (inactive) | 45.8 µM (inactive) | 68.7 µM | 17.3 µM (inactive) | 35.6 µM (inactive) | 25.5 µM (inactive) | 16.3 µM (inactive) | 45.5 µM (inactive) | 15.5 µM (inactive) | 30 µM (inactive) | 51.4 µM (inactive) | 17.1 µM (inactive) | – | 14.8 µM (inactive) | 29.8 µM (inactive) | – | 36.8 µM (inactive)
8 | C[N+](C)(C)c1ncnc2c1ncn2C1CCCO1 (centres undefined) | > 100 µM (inactive) | > 100 µM (inactive) | > 100 µM (inactive) | > 100 µM (inactive) | > 100 µM | > 100 µM (inactive) | > 100 µM (inactive) | > 100 µM (inactive) | > 100 µM (inactive) | > 100 µM (inactive) | > 100 µM (inactive) | > 100 µM (inactive) | > 100 µM (inactive) | > 100 µM (inactive) | 56.4 µM (inactive) | – | > 100 µM (inactive) | > 100 µM (inactive) | > 100 µM (inactive)
9 | C/C=C\C(CC(=O)NCCc1c[nH]c2ccccc12)CC(=O)OC (centres undefined) | > 100 µM (inactive) | > 100 µM (inactive) | > 100 µM (inactive) | > 100 µM (inactive) | > 100 µM | > 100 µM (inactive) | > 100 µM (inactive) | > 100 µM (inactive) | > 100 µM (inactive) | > 100 µM (inactive) | > 100 µM (inactive) | – | > 100 µM (inactive) | > 100 µM (inactive) | – | > 100 µM (inactive) | > 100 µM (inactive) | – | > 100 µM (inactive)
10 | CN(C)/C=N/S(=O)(=O)c1nn2c(C=O)c(-c3ccccc3)nc2s1 | 3.9 µM (inactive) | 12.4 µM (inactive) | 4.65 µM (inactive) | 1.94 µM (inactive) | 9.46 µM | 15.9 µM (inactive) | 47.2 µM (inactive) | 5.62 µM (inactive) | 30.5 µM (inactive) | 12.9 µM (inactive) | 3.37 µM (inactive) | 2.96 µM (inactive) | 18.2 µM (inactive) | 4.53 µM (inactive) | – | 6.81 µM (inactive) | 52.8 µM (inactive) | 17.7 µM (inactive) | 20.8 µM (inactive)
11 | CC(=O)C(C(=O)c1ccc(C)cc1)[C@H]1OC(C)(C)O[C@H]1[C@H]1COC(C)(C)O1 (some centres undefined) | 1.78 µM (inactive) | 2.24 µM (inactive) | 6.3 µM (inactive) | 2.2 µM (inactive) | 2.99 µM | 1.91 µM (inactive) | 6.12 µM (inactive) | 2.88 µM (inactive) | 5.32 µM (inactive) | 7.73 µM (inactive) | 2.34 µM (inactive) | – | 6.1 µM (inactive) | 10.3 µM (inactive) | – | 5.82 µM (inactive) | 7.78 µM (inactive) | 1.87 µM (inactive) | 7.05 µM (inactive)
12 | Cc1c(-c2ccccc2)nn2cc(-c3ccccc3)nnc12 | 31 µM (inactive) | 29.5 µM (inactive) | 25.2 µM (inactive) | 24.2 µM (inactive) | 14.7 µM | 19.2 µM (inactive) | 28.7 µM (inactive) | 17.2 µM (inactive) | – | 42.4 µM (inactive) | 15.5 µM (inactive) | 27.4 µM (inactive) | 17.9 µM (inactive) | 22.2 µM (inactive) | – | 18.3 µM (inactive) | 34.8 µM (inactive) | – | 16.9 µM (inactive)
13 | Cc1ccc(Cc2n[nH]c(=O)n2-c2ccccc2)cc1 | > 100 µM (inactive) | > 100 µM (inactive) | > 100 µM (inactive) | > 100 µM (inactive) | > 100 µM | > 100 µM (inactive) | – | > 100 µM (inactive) | – | > 100 µM (inactive) | – | – | 55.3 µM (inactive) | – | > 100 µM (inactive) | > 100 µM (inactive) | > 100 µM (inactive) | > 100 µM (inactive) | > 100 µM (inactive)
14 | COc1ccc(/C=c2/sc3n(c2=O)C(c2ccccc2)C2(O)CCCCC2N=3)cc1 (centres undefined) | > 12.5 µM (inactive) | > 12.5 µM (inactive) | > 12.5 µM (inactive) | > 12.5 µM (inactive) | – | > 12.5 µM (inactive) | > 12.5 µM (inactive) | > 12.5 µM (inactive) | – | > 12.5 µM (inactive) | > 12.5 µM (inactive) | > 12.5 µM (inactive) | > 12.5 µM (inactive) | – | > 12.5 µM (inactive) | – | – | – | > 12.5 µM (inactive)
15 | CN(C)c1ncc(-c2c[nH]c3ccccc23)nc1-c1c[nH]c2ccccc12 | 2.8 µM (inactive) | 3.31 µM (inactive) | 13.8 µM (inactive) | 2.19 µM (inactive) | 3.14 µM | 3.37 µM (inactive) | 8.18 µM (inactive) | 2.12 µM (inactive) | 3.32 µM (inactive) | 8.59 µM (inactive) | – | – | 1.99 µM (inactive) | 2.3 µM (inactive) | 2.02 µM (inactive) | 2.07 µM (inactive) | 2.33 µM (inactive) | 4.21 µM (inactive) | 2.12 µM (inactive)
16 | O=C1c2cccc(O)c2C(=O)c2c(OC3OC(CO)C(O)C(O)C3O)cccc21 (centres undefined) | 48 µM (inactive) | 18.2 µM (inactive) | 21.8 µM (inactive) | 33.3 µM (inactive) | 20.6 µM | 25.2 µM (inactive) | 46.3 µM (inactive) | 22.2 µM (inactive) | 32.7 µM (inactive) | 40.4 µM (inactive) | 15.8 µM (inactive) | – | 49.8 µM (inactive) | 19.4 µM (inactive) | – | 21.3 µM (inactive) | 48.5 µM (inactive) | 25.5 µM (inactive) | 17.9 µM (inactive)
17 | CC(=O)Oc1ccc(/C=C/C(=O)O[C@@H](C(=O)O)[C@@H](OC(=O)/C=C/c2ccc(OC(C)=O)c(OC(C)=O)c2)C(=O)O)cc1OC(C)=O | > 100 µM (inactive) | > 100 µM (inactive) | > 100 µM (inactive) | – | > 100 µM | > 100 µM (inactive) | > 100 µM (inactive) | > 100 µM (inactive) | > 100 µM (inactive) | > 100 µM (inactive) | > 100 µM (inactive) | > 100 µM (inactive) | > 100 µM (inactive) | > 100 µM (inactive) | – | > 100 µM (inactive) | > 100 µM (inactive) | – | > 100 µM (inactive)
